Oligonucleotides are written 5' to 3', each unit as a sugar letter and its base; * is a phosphorothioate linkage, no mark a phosphodiester; rarer units and linkages stand in square brackets, end groups in braces. Plain capitals give the bases only. e = 2'-O-(2-methoxyethyl) (MOE); [5mC] = 5-methylcytosine; d = 2'-deoxy (DNA)
Columns and labels:
Assay type in all cases: in vivo, mouse
[1] = test system: Sterol O-acyltransferase 2 (Soat2) mRNA; assay: PCR microarray analysis of liver, LDLr-/- mice: Soat2; conditions: 6 weeks
Description: (§1) Four groups of five male mice each were injected with a total of 1.5, 5, 15, or 50 mg/kg/week of ISIS 447118 for 6 weeks. A group of five mice was injected with a total of 50 mg/kg/week of control oligonucleotide ISIS 141923 ([…], designated herein as SEQ ID NO: 112, which has no known murine target) for 6 weeks. A control group of five mice was injected with phosphate buffered saline (PBS) twice a week for 6 weeks. Plasma samples were obtained before the start of treatment, at week 3 and at week 6. At the end of the treatment period, the mice were euthanized. Plasma and tissue samples were obtained for further analysis.
(§2) Liver samples from the mice groups were analyzed using a commercial kit for PCR microarray analysis (SA Biosciences Corp., MD), according to the manufacturer's instructions. Genes involved in lipoprotein and cholesterol metabolism were compared with the PBS control.

[2] = test system: Mevalonate (diphospho) decarboxylase (Mvd) mRNA; assay: PCR microarray analysis of liver, LDLr-/- mice: Mvd; conditions: 6 weeks
Description: as §1, §2

[3] = test system: Farnesyl diphosphate synthetase (Fdps) mRNA; assay: PCR microarray analysis of liver, LDLr-/- mice: Fdps; conditions: 6 weeks
Description: as §1, §2

[4] = test system: Proprotein convertase subtilisin/kexin type 9 (Pcsk9) mRNA; assay: PCR microarray analysis of liver, LDLr-/- mice: Pcsk9; conditions: 6 weeks
Description: as §1, §2

Stabilin 1 (Stab1) mRNA = assay: PCR microarray analysis of liver, LDLr-/- mice: Stab1; conditions: 6 weeks
Description: as §1, §2

[5] = test system: Insulin induced gene 1 (Insig1) mRNA; assay: PCR microarray analysis of liver, LDLr-/- mice: Insig1; conditions: 6 weeks
Description: as §1, §2

[6] = test system: Low density lipoprotein receptor (Ldlr) mRNA; assay: PCR microarray analysis of liver, LDLr-/- mice: Ldlr; conditions: 6 weeks
Description: as §1, §2

[7] = Plasma cholesterol and triglycerides in LDLr-/- mice
Description: The LDLr knockout mice model is a model for familial hypercholesterolemia developed by Ishibashi et al (J Clin Invest 1993; 92: 883-893). On a normal chow diet, the mice have an average total cholesterol of 250 mg/dL due to increases in LDL and VLDL cholesterol. This model is therefore highly susceptible to atherosclerosis (Ishibashi et al Proc Natl Acad Sci USA 1994; 91: 4431-4435).
as §1
To investigate the effect of inhibition of TTC39B on triglycerides and cholesterol levels in the plasma, samples were collected on weeks 0, 3, and 6, and total plasma cholesterol, LDL cholesterol, HDL cholesterol, and triglycerides were analyzed on an Olympus AU400e Analyzer.

[8] = test system: Oxysterol binding protein-like 5 (Osbpl5) mRNA; assay: PCR microarray analysis of liver, LDLr-/- mice: Osbpl5; conditions: 6 weeks
Description: as §1, §2

[9] = test system: Apolipoprotein A-IV (ApoA4) mRNA; assay: PCR microarray analysis of liver, LDLr-/- mice: ApoA4; conditions: 6 weeks
Description: as §1, §2

[10] = 1.5 mg/kg/week, Week 0 (before treatment)
[11] = 5 mg/kg/week, Week 0 (before treatment)
[12] = 15 mg/kg/week, Week 0 (before treatment)
[13] = 50 mg/kg/week, Week 0 (before treatment)

GCAGCTCGATTCGGGCATGA (antisense eG*e[5mC]*eA*eG*e[5mC]*dT*d[5mC]*dG*dA*dT*dT*d[5mC]*dG*dG*dG*e[5mC]*eA*eT*eG*eA) [ISIS 447118]
Soat2 fold increase/decrease relative to PBS group ([1]; 1.5 mg/kg): 1.05 fold | Soat2 fold increase/decrease relative to PBS group ([1]; 5 mg/kg): 0.88 fold | Soat2 fold increase/decrease relative to PBS group ([1]; 15 mg/kg): 1.36 fold | Soat2 fold increase/decrease relative to PBS group ([1]; 50 mg/kg): 1.79 fold | Mvd fold increase/decrease relative to PBS group ([2]; 1.5 mg/kg): 0.81 fold | Mvd fold increase/decrease relative to PBS group ([2]; 5 mg/kg): 0.7 fold | Mvd fold increase/decrease relative to PBS group ([2]; 15 mg/kg): 0.56 fold | Mvd fold increase/decrease relative to PBS group ([2]; 50 mg/kg): 0.67 fold | Fdps fold increase/decrease relative to PBS group ([3]; 1.5 mg/kg): 1.03 fold | Fdps fold increase/decrease relative to PBS group ([3]; 5 mg/kg): 0.84 fold | Fdps fold increase/decrease relative to PBS group ([3]; 15 mg/kg): 0.8 fold | Fdps fold increase/decrease relative to PBS group ([3]; 50 mg/kg): 0.66 fold | Pcsk9 fold increase/decrease relative to PBS group ([4]; 1.5 mg/kg): 0.83 fold | Pcsk9 fold increase/decrease relative to PBS group ([4]; 5 mg/kg): 0.66 fold | Pcsk9 fold increase/decrease relative to PBS group ([4]; 15 mg/kg): 0.4 fold | Pcsk9 fold increase/decrease relative to PBS group ([4]; 50 mg/kg): 0.23 fold | Stab1 fold increase/decrease relative to PBS group (Stabilin 1 (Stab1) mRNA; 1.5 mg/kg): 1.15 fold | Stab1 fold increase/decrease relative to PBS group (Stabilin 1 (Stab1) mRNA; 5 mg/kg): 1.19 fold | Stab1 fold increase/decrease relative to PBS group (Stabilin 1 (Stab1) mRNA; 15 mg/kg): 1.35 fold | Stab1 fold increase/decrease relative to PBS group (Stabilin 1 (Stab1) mRNA; 50 mg/kg): 1.53 fold | Insig1 fold increase/decrease relative to PBS group ([5]; 1.5 mg/kg): 0.96 fold | Insig1 fold increase/decrease relative to PBS group ([5]; 5 mg/kg): 0.84 fold | Insig1 fold increase/decrease relative to PBS group ([5]; 15 mg/kg): 0.68 fold | Insig1 fold increase/decrease relative to PBS group ([5]; 50 mg/kg): 0.67 fold | Ldlr fold increase/decrease relative to PBS group ([6]; 1.5 mg/kg): 1.43 fold | Ldlr fold increase/decrease relative to PBS group ([6]; 5 mg/kg): 1.28 fold | Ldlr fold increase/decrease relative to PBS group ([6]; 15 mg/kg): 1.79 fold | Ldlr fold increase/decrease relative to PBS group ([6]; 50 mg/kg): 2.87 fold | HDL cholesterol % increase on week 6 (% change over baseline) ([7]; 1.5 mg/kg/week): 36% | HDL cholesterol levels [7, 10]: 75 mg/dL | LDL cholesterol levels [7, 10]: 115 mg/dL | total cholesterol levels [7, 10]: 227 mg/dL | triglyceride levels [7, 10]: 126 mg/dL | HDL cholesterol levels ([7]; 1.5 mg/kg/week, Week 3): 71 mg/dL | LDL cholesterol levels ([7]; 1.5 mg/kg/week, Week 3): 116 mg/dL | total cholesterol levels ([7]; 1.5 mg/kg/week, Week 3): 217 mg/dL | triglyceride levels ([7]; 1.5 mg/kg/week, Week 3): 107 mg/dL | HDL cholesterol levels ([7]; 1.5 mg/kg/week, Week 6): 101 mg/dL | LDL cholesterol levels ([7]; 1.5 mg/kg/week, Week 6): 131 mg/dL | total cholesterol levels ([7]; 1.5 mg/kg/week, Week 6): 247 mg/dL | triglyceride levels ([7]; 1.5 mg/kg/week, Week 6): 142 mg/dL | HDL cholesterol % increase on week 6 (% change over baseline) ([7]; 5 mg/kg/week): 28% | HDL cholesterol levels [7, 11]: 88 mg/dL | LDL cholesterol levels [7, 11]: 112 mg/dL | total cholesterol levels [7, 11]: 234 mg/dL | triglyceride levels [7, 11]: 118 mg/dL | HDL cholesterol levels ([7]; 5 mg/kg/week, Week 3): 83 mg/dL | LDL cholesterol levels ([7]; 5 mg/kg/week, Week 3): 120 mg/dL | total cholesterol levels ([7]; 5 mg/kg/week, Week 3): 232 mg/dL | triglyceride levels ([7]; 5 mg/kg/week, Week 3): 122 mg/dL | HDL cholesterol levels ([7]; 5 mg/kg/week, Week 6): 112 mg/dL | LDL cholesterol levels ([7]; 5 mg/kg/week, Week 6): 130 mg/dL | total cholesterol levels ([7]; 5 mg/kg/week, Week 6): 261 mg/dL | triglyceride levels ([7]; 5 mg/kg/week, Week 6): 149 mg/dL | HDL cholesterol % increase on week 6 (% change over baseline) ([7]; 15 mg/kg/week): 45% | HDL cholesterol levels [7, 12]: 84 mg/dL | LDL cholesterol levels [7, 12]: 122 mg/dL | total cholesterol levels [7, 12]: 239 mg/dL | triglyceride levels [7, 12]: 120 mg/dL | HDL cholesterol levels ([7]; 15 mg/kg/week, Week 3): 82 mg/dL | LDL cholesterol levels ([7]; 15 mg/kg/week, Week 3): 133 mg/dL | total cholesterol levels ([7]; 15 mg/kg/week, Week 3): 249 mg/dL | triglyceride levels ([7]; 15 mg/kg/week, Week 3): 126 mg/dL | HDL cholesterol levels ([7]; 15 mg/kg/week, Week 6): 122 mg/dL | LDL cholesterol levels ([7]; 15 mg/kg/week, Week 6): 158 mg/dL | total cholesterol levels ([7]; 15 mg/kg/week, Week 6): 294 mg/dL | triglyceride levels ([7]; 15 mg/kg/week, Week 6): 131 mg/dL | HDL cholesterol % increase on week 6 (% change over baseline) ([7]; 50 mg/kg/week): 58% | HDL cholesterol levels [7, 13]: 78 mg/dL | LDL cholesterol levels [7, 13]: 99 mg/dL | total cholesterol levels [7, 13]: 207 mg/dL | triglyceride levels [7, 13]: 98 mg/dL | HDL cholesterol levels ([7]; 50 mg/kg/week, Week 3): 85 mg/dL | LDL cholesterol levels ([7]; 50 mg/kg/week, Week 3): 111 mg/dL | total cholesterol levels ([7]; 50 mg/kg/week, Week 3): 224 mg/dL | triglyceride levels ([7]; 50 mg/kg/week, Week 3): 96 mg/dL | HDL cholesterol levels ([7]; 50 mg/kg/week, Week 6): 124 mg/dL | LDL cholesterol levels ([7]; 50 mg/kg/week, Week 6): 146 mg/dL | total cholesterol levels ([7]; 50 mg/kg/week, Week 6): 282 mg/dL | triglyceride levels ([7]; 50 mg/kg/week, Week 6): 115 mg/dL | Osbpl5 fold increase/decrease relative to PBS group ([8]; 1.5 mg/kg): 1.7 fold | Osbpl5 fold increase/decrease relative to PBS group ([8]; 5 mg/kg): 2.34 fold | Osbpl5 fold increase/decrease relative to PBS group ([8]; 15 mg/kg): 3.11 fold | Osbpl5 fold increase/decrease relative to PBS group ([8]; 50 mg/kg): 2.11 fold | ApoA4 fold increase/decrease relative to PBS group ([9]; 1.5 mg/kg): 1.26 fold | ApoA4 fold increase/decrease relative to PBS group ([9]; 5 mg/kg): 1.38 fold | ApoA4 fold increase/decrease relative to PBS group ([9]; 15 mg/kg): 1.76 fold | ApoA4 fold increase/decrease relative to PBS group ([9]; 50 mg/kg): 2.7 fold

Source: patent US20120270929A1, “MODULATION OF TTC39 EXPRESSION TO INCREASE HDL” (ISIS Pharmaceuticals, Inc., priority 2009, published 2012)
